Source: US20220133747A1, “ESTROGEN RECEPTOR INHIBITORS AND USES THEROF” (The Regents of the University of California, priority 2018, published 2022)

Experiments:
[1] = test system: ER-dependent transcription; experiment: ERE-luciferase T47D reporter, ER-dependent transcriptional activity; assay type: cell-based, human; conditions: E2 alone, 2 nM
Description: (§1) FIGS. 20A-20C show biologic activity of selected SERD candidates. […] ER-positive MCF-7 cells were treated in phenol-red free RPMI 1640 without FBS and containing vehicle control (CON) or 100 nM concentrations of either fulvestrant (FX) or antiestrogens 105, 109, 121, 140, 151, 160 or SERD128 in vitro. After 4 hours, cells were harvested and processed for PAGE and Western immunoblots using ERα antibody (1D5, Thermofisher Scientific). RPL13A was used as a loading control. […] Cells were dosed with either E2 alone or with SERDs combined with E2 in phenol redfree medium with 0.1% dextran-coated charcoal-treated FBS in luminometer plates. Data are presented as relative light units (RLU) relative to that of E2 alone in three replicate assays (4 wells per replicate) f SEM. Treatment with E2 alone induced a 12-fold induction of ER-dependent luciferase activity quantified as RLU relative to vehicle control-treated samples.
A stable ER-positive T47D ERE luciferase reporter cell line, in which the ERE and the reporter luciferase gene are consistently expressed in the cell line were used in this study (Signosis). […] Lysate was mixed 1:1 with luciferase substrate (Promega), and luminescence was measured using a MLX microtiter plate luminometer (Dynex) and quantified as relative light units (RLU) according to established procedures. Total protein was quantified using BioRad Protein Assay (BioRad).

[2] = biological target: T1, ERα (Homo sapiens, UniProt P03372); experiment: Downregulation of ER protein, PAGE and Western immunoblot in MCF-7 cells; assay type: cell-based; conditions: 100 nM, 4 hours, phenol-red free medium without FBS
T1 construct: endogenous in cells; host or cells: MCF-7 human breast cancer cells (ATCC)
T1 sequence (P03372 1-595): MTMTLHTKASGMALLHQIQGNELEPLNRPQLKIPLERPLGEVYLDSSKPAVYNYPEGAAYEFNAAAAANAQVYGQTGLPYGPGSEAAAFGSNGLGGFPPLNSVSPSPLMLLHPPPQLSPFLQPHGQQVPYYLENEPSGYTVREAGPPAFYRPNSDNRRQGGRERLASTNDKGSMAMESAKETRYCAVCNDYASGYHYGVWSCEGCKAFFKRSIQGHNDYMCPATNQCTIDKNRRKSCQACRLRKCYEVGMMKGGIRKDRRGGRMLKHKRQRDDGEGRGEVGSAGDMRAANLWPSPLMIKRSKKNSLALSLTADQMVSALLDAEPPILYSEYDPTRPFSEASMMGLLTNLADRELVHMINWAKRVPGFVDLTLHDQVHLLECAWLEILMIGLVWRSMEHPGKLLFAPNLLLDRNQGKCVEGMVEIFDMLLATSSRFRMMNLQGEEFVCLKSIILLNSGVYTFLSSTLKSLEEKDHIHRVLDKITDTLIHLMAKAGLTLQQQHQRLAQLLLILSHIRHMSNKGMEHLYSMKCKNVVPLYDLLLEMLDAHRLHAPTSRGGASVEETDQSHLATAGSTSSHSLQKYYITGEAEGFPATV
Description: as §1
MCF7 cells were plated in regular medium. After 24 hrs, cells were incubated in the presence of antiestrogens or fulvestrant for 4 hrs in phenol-red free medium without FBS. Cell lysates were prepared using RIPA buffer, and protein concentration was determined using the BCA Protein Assay Kit (PIERCE/ThermoFisher Scientific). Forty micrograms of total cell protein was resolved by 4-15% SDS-PAGE, transferred to a PVDF membrane and probed with antibody directed against ERα (1D5, 1:100, ThermoFisher cat #MA5-13191). RPL13A (dilution 1:1000, Invitrogen/ThermoFisher cat #PA5-58528) was used as loading control.

[3] = test system: ER+ early breast cancer; conditions: cited from earlier work

C[C@]12CC[C@@H]3c4ccc(O)cc4CC[C@H]3[C@@H]1CC[C@@H]2O [E2, estradiol-17β, reference compound]
induction of ER-dependent luciferase activity (RLU relative to vehicle control) [1]: 12 fold

C[C@]12C[C@H](Oc3ccc(NC(=O)CCCCN4CCCCC4)c(F)c3)[C@@H]3c4ccc(O)cc4CC[C@H]3[C@@H]1CC[C@@H]2O [SERD140, N-(4-(((8S,9S,11S,13S,14S,17S)-3,17-Dihydroxy-13-methyl-7,8,9,11,12,13,14,15,16,17-deca-hydro-6H-cyclopenta[a]phenanthren-11-yl)oxy)-2-fluorophenyl)-5-(piperidin-1-yl)pentan-amide]
downregulation of ER protein (ERα protein levels) [2]: most effective in reducing ER protein levels

CC/C(=C(\c1ccccc1)c1ccc(OCCN(C)C)cc1)c1ccccc1 [Tamoxifen]
reduction in disease recurrence [3]: 39%
reduction in mortality [3]: 31%
